Laboratory results taken from patent US6949571B2, “1,2-dihydropyridine compounds, process for preparation of the same and use thereof” (Eisai Co., Ltd., priority 2000, dated 2005).

Tested on: AMPA receptor
Details: Table 1; primary culture of rat embryo cerebral cortex nerve cells, 2 μM AMPA, 1 μM MK-801
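Also: primary rat embryonic cortical neurons grown on an astrocyte layer in 96-well plates, used after at least 8 to 10 days in culture, Fura2-AM fluorescence ratio at 340/380 nm excitation.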

| Compound | IC50 [nM] |
| --- | --- |
| N#Cc1ccccc1-c1cc(-c2ccccc2[N+](=O)[O-])cn(-c2ccccc2)c1=O [Example 1, 3-(2-Cyanophenyl)-5-(2-nitrophenyl)-1-phenyl-1,2-dihydropyridin-2-one] | 800 |
| N#Cc1ccccc1-c1cc(-c2ccccc2N)cn(-c2ccccc2)c1=O [Example 2, 5-(2-Aminophenyl)-3-(2-cyanophenyl)-1-phenyl-1,2-dihydropyridin-2-one] | 1800 |
| CS(=O)(=O)Nc1ccccc1-c1cc(-c2ccccc2C#N)c(=O)n(-c2ccccc2)c1 [Example 3, 3-(2-Cyanophenyl)-5-(2-methylsulfonylaminophenyl)-1-phenyl-1,2-dihydropyridin-2-one] | 300 |
| COc1ncc(-c2ccccn2)cc1-c1ccccc1C#N [Example 5, 3-(2-Cyanophenyl)-5-(2-pyridyl)-2-methoxypyridine] | 600 |
| N#Cc1ccccc1-c1cc(-c2ccccn2)c[nH]c1=O [Example 6, 3-(2-Cyanophenyl)-5-(2-pyridyl)-2(1H)-pyridone] | 9300 |
| N#Cc1ccccc1-c1cc(-c2ccccn2)cn(-c2cccc([N+](=O)[O-])c2)c1=O [Example 8, 3-(2-Cyanophenyl)-5-(2-pyridyl)-1-(3-nitrophenyl)-1,2-dihydropyridin-2-one] | 100 |
| CS(=O)(=O)Nc1cccc(-n2cc(-c3ccccn3)cc(-c3ccccc3C#N)c2=O)c1 [Example 10, 3-(2-Cyanophenyl)-5-(2-pyridyl)-1-(3-methylsulfonylaminophenyl)-1,2-dihydropyridin-2-one] | 50 |
| CNc1cccc(-n2cc(-c3ccccn3)cc(-c3ccccc3C#N)c2=O)c1 [Example 11, 3-(2-Cyanophenyl)-5-(2-pyridyl)-1-(3-methylaminophenyl)-1,2-dihydropyridin-2-one] | 60 |
| COCC1CN(c2cccc(-n3cc(-c4ccccn4)cc(-c4ccccc4C#N)c3=O)c2)C(=O)O1 (centres unmarked) [Example 13, 3-(2-Cyanophenyl)-5-(2-pyridyl)-1-[3-(5-methoxymethyl-2-oxazolidinon-3-yl)-phenyl]-1,2-dihydropyridin-2-one] | 200 |
| COC(=O)c1cccc(-n2cc(-c3ccccn3)cc(-c3ccccc3C#N)c2=O)c1 [Example 14, 3-(2-Cyanophenyl)-5-(2-pyridyl)-1-(3-methoxycarbonylphenyl)-1,2-dihydropyridin-2-one] | 100 |
| CNC(=O)c1cccc(-n2cc(-c3ccccn3)cc(-c3ccccc3C#N)c2=O)c1 [Example 15, 3-(2-Cyanophenyl)-5-(2-pyridyl)-1-(3-methylaminocarbonylphenyl)-1,2-dihydropyridin-2-one] | 50 |
| COc1ccc(-n2cc(-c3ccccn3)cc(-c3ccccc3Cl)c2=O)cc1 [Example 17, 3-(2-Chlorophenyl)-5-(2-pyridyl)-1-(4-methoxyphenyl)-1,2-dihydropyridin-2-one] | 700 |
| O=c1c(-c2ccccc2Cl)cc(-c2ccccn2)cn1-c1ccc(O)cc1 [Example 18, 3-(2-Chlorophenyl)-5-(2-pyridyl)-1-(4-hydroxyphenyl)-1,2-dihydropyridin-2-one] | 20 |
| CN(C)CCOc1ccc(-n2cc(-c3ccccn3)cc(-c3ccccc3Cl)c2=O)cc1 [Example 19, 3-(2-Chlorophenyl)-5-(2-pyridyl)-1-(4-dimethylaminoethoxyphenyl)-1,2-dihydropyridin-2-one] | 80 |
| N#Cc1ccccc1-c1cc(-c2ccccn2)cn(-c2cccc(C=O)c2)c1=O [Example 20, 3-(2-Cyanophenyl)-5-(2-pyridyl)-1-(3-formylphenyl)-1,2-dihydropyridin-2-one] | 40 |
| N#Cc1ccccc1-c1cc(-c2ccccn2)cn(-c2cccc(CO)c2)c1=O [Example 21, 3-(2-Cyanophenyl)-5-(2-pyridyl)-1-(3-hydroxymethylphenyl)-1,2-dihydropyridin-2-one] | 30 |
| N#CCc1cccc(-n2cc(-c3ccccn3)cc(-c3ccccc3C#N)c2=O)c1 [Example 22, 3-(2-Cyanophenyl)-5-(2-pyridyl)-1-(3-cyanomethylphenyl)-1,2-dihydropyridin-2-one] | 60 |
